The series in a line: Solubility of ecabet sodium in aqueous solution. It counts as physicochemical. The note with it: pH less than pH 7.

Counter-ions that a name gives are not always drawn.

The source of these data is US20040259905A1, “Aqueous ecabet sodium solution preparation” (priority 2001, published 2004).

`CC(C)c1cc2c(cc1S(=O)(=O)O)[C@@]1(C)CCC[C@@](C)(C(=O)O)[C@@H]1CC2` [ecabet sodium, (+)-(1R,4aS,10aR)-1,2,3,4,4a,9,10,10a-octahydro-1,4a-dimethyl-7-(1-methylethyl)-6-sulfo-1-phenanthrencarboxylic acid 6-sodium salt pentahydrate]: the “solubility in an aqueous solution” value is listed as “low”.
